Results: ChEMBL document CHEMBL1201862, “PubChem BioAssay data set” (2004)
The source made the active and inactive calls.

Assays:
cells [1] = assay type: functional
fMet-Leu-Phe receptor = biological target: T1, fMet-Leu-Phe receptor (Homo sapiens, UniProt P21462); experiment: formyl peptide receptor binders – dose response (AID 519); assay type: functional
T1 sequence (P21462 whole entry): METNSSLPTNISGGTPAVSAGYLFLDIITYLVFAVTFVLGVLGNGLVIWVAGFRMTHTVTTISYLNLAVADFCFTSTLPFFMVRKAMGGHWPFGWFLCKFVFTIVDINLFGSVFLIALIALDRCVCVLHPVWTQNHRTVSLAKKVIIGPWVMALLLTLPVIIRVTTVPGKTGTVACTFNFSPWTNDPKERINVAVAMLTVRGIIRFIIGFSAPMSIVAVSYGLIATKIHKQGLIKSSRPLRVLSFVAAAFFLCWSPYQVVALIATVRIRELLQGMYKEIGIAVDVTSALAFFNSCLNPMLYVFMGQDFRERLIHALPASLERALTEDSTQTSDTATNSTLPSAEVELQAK

[2] = tested on: Streptococcus sp. 'group A'; experiment: Streptococcus pyogenes SK(-)GAS viability under kanamycin – luminescence, BacTiterGlo, confirmation, counter-screen for streptokinase expression inhibitor project, dose response (AID 1900); assay type: functional, organism-based
[3] = HepG2 cell cytotoxicity, dose response, cytotoxicity control for non-replicating M. tuberculosis project (AID 489018); assay type: functional; settings: Mycobacterium tuberculosis
[4] = Vero E6 cell cytotoxicity, dose response, cytotoxicity control for non-replicating M. tuberculosis project, secondary assay (AID 492998); assay type: functional, VeroE6; settings: Vero C1008
[5] = THP-1 cell cytotoxicity, dose response, cytotoxicity control for non-replicating M. tuberculosis project (AID 489025); assay type: functional
Streptococcus = experiment: GAS UMAA2166 growth inhibition – luminescence, BacTiterGlo, counter-screen for streptokinase expression inhibitor project, dose response (AID 1915); assay type: functional, organism-based;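 note: potency for reduction of bacterial viability or growth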
[6] = Trypanosoma cruzi growth suppression in host cells – NIH3T3 host cells, beta-gal luminescence, confirmation (AID 2044); assay type: functional, cell-based;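 note: intracellular parasites grown in NIH/3T3 mouse fibroblasts as host cells; luminescent beta-galactosidase reporter signal from transgenic T. cruzi replicating inside host cells; inhibitors lower the luminescence signal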
[7] = Intein inhibitors as potential Tuberculosis drugs, a cytotoxicity screen. [Related pubchem assays (depositor defined):AID2221, AID2223, AID434968, AID435010, AID449749, AID449750, AID489010]; assay type: functional
[8] = NIH3T3 cell viability loss – ATP luminescence, mouse fibroblasts, counter-screen, dose response (AID 2010); assay type: functional, cell-based;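 note: cells exposed to compound for about 90 hours before reading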
[9] = biological target: T2, Replicative DNA helicase DnaB (Mycobacterium tuberculosis, UniProt P9WMR3); experiment: DnaB intein splicing inhibitors, dose response, biochemical, cell-free fluorescence (AID 449749); assay type: functional
T2 sequence (P9WMR3 whole entry): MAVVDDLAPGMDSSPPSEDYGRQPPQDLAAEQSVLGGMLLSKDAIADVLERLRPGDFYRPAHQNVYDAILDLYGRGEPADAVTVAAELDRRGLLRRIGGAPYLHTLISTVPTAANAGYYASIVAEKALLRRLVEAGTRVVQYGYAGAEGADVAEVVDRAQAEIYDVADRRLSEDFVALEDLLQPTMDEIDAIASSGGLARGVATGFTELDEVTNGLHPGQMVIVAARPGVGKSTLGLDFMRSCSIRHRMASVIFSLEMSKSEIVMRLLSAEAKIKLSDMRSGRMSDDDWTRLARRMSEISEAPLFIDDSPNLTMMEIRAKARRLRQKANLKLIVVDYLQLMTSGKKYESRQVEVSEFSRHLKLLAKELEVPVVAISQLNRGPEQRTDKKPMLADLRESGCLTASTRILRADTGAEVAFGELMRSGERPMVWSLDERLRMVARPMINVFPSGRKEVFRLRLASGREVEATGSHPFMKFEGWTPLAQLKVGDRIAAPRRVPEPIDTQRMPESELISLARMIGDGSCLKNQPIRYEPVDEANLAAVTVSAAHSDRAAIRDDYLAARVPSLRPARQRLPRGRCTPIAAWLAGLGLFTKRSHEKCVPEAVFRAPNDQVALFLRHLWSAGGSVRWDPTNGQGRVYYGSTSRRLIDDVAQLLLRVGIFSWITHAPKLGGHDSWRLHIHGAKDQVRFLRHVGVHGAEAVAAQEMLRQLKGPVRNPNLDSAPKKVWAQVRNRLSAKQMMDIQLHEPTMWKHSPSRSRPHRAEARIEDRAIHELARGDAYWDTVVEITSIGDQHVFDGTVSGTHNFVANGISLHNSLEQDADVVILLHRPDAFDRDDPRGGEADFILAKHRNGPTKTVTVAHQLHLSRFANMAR

Protein RecA = biological target: T3, Protein RecA (Mycobacterium tuberculosis, UniProt P9WHJ3); experiment: Fluorescence Cell-Free Homogeneous Dose Retest to Identify Inhibitors of RecA-Intein Splicing Activity. [Related pubchem assays (depositor defined):AID2097, AID2223, AID489010, AID492950]; assay type: functional
T3 sequence (P9WHJ3 whole entry): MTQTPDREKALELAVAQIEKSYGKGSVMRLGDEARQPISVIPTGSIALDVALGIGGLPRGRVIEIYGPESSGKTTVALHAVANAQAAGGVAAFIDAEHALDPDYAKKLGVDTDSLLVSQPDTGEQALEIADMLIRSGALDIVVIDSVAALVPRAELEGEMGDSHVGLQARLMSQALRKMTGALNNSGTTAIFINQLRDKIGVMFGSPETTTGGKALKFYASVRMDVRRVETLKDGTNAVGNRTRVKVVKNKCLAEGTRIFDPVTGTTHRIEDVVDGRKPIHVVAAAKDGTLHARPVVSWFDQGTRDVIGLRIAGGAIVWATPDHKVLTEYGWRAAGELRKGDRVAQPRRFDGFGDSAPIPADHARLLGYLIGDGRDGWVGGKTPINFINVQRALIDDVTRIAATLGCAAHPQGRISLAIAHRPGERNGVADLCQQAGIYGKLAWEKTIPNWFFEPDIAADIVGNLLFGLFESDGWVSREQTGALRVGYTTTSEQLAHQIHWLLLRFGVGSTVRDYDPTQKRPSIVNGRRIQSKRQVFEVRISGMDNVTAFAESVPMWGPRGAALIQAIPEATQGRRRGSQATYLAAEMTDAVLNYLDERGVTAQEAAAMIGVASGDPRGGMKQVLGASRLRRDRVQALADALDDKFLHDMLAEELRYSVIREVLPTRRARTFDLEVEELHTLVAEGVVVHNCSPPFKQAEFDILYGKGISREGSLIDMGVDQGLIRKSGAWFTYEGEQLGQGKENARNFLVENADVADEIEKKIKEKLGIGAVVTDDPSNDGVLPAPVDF

[10] = biological target: T4, Calpain-2 catalytic subunit (Sus scrofa, UniProt P43367); experiment: m-calpain protease blockers, concentration series – biochemical, fluorogenic peptide substrate, dose response (AID 1420); assay type: functional
T4 sequence (P43367 whole entry): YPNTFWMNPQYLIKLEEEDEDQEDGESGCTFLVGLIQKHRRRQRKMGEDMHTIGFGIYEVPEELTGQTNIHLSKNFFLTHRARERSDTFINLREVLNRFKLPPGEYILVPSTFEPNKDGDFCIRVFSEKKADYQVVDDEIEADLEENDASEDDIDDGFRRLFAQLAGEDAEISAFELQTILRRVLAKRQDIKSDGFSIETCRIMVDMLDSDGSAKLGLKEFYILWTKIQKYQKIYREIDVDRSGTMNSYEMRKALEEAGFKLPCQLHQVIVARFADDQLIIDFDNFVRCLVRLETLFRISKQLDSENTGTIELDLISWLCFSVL

[11] = biological target: T5, Voltage-gated N-type calcium channel alpha-1B subunit/Amyloid beta A4 precursor protein-binding family A member 1 (Homo sapiens, UniProt Q00975+Q02410); assay type: protein assay
[12] = biological target: T5, Voltage-gated N-type calcium channel alpha-1B subunit/Amyloid beta A4 precursor protein-binding family A member 1; assay type: protein assay; remark: listed apart in the source
Hexokinase = Hexokinase (Trypanosoma brucei, UniProt Q38C41); experiment: Confirmation assay for inhibitors of Trypanosoma brucei hexokinase 1-Analogue-first series. [Related pubchem assays (depositor defined):AID1430, AID1632, AID2516, AID2560, AID2579, AID2600, AID449725, AID492951]; assay type: functional
CAAX prenyl protease 2 = CAAX prenyl protease 2 (Saccharomyces cerevisiae S288c, UniProt Q03530); assay type: biochemical
cells [13] = assay type: functional, cell-based
cells [14] = assay type: functional, cell-based; remark: listed apart in the source
[15] = biological target: Luciferin 4-monooxygenase (Photinus pyralis, UniProt P08659); experiment: inhibition of purified Photinus pyralis luciferase – biochemical, luminescence, dose response (AID 1891)
INS1 = experiment: INS-1E survival protection against cytokine death – cell-based, luminescence, retest, dose response (AID 449756); assay type: functional; settings: Rattus norvegicus;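 note: cell death triggered by IL-1 beta plus TNF-alpha plus IFN-gamma mixture; protective hits raise ATP signal compared with cytokine alone wells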
[16] = biological target: T6, Kappa-type opioid receptor (Homo sapiens, UniProt P41145); assay type: functional
[17] = Luminescence Cell-Based Dose Confirmation HTS to Identify Inhibitors of Platelet Dense Granule Release. [Related pubchem assays: 1663 (Primary HTS), 1678 (Summary of Project)]; assay type: functional
Beta-galactosidase = Beta-galactosidase (Escherichia coli, UniProt Q8VNN2); assay type: functional
[18] = biological target: T6, Kappa-type opioid receptor; assay type: functional; remark: listed apart in the source
[19] = biological target: T7, Dual specificity protein phosphatase 3 (Homo sapiens, UniProt P51452); experiment: VHR1 phosphatase inhibitors, primary screen, biochemical, absorbance, uHTS (AID 1654)
[20] = biological target: T7, Dual specificity protein phosphatase 3; experiment: VHR1 phosphatase inhibitors, biochemical (AID 1878)
[21] = biological target: T8, Polyadenylate-binding protein 1 (Homo sapiens, UniProt P11940); experiment: MLLE domain peptide-binding blockers, IC50 – biochemical, fluorescence polarization, FITC-PAM2 peptide, dose response (AID 602259); assay type: functional; settings: read-out: IC50_Mean
[22] = biological target: T9, Dual specificity protein phosphatase 6 (Rattus norvegicus, UniProt Q64346); experiment: inhibition of rat DUSP6 enzyme activity – biochemical, in vitro, primary screen (AID 425)
T9 sequence (Q64346 whole entry): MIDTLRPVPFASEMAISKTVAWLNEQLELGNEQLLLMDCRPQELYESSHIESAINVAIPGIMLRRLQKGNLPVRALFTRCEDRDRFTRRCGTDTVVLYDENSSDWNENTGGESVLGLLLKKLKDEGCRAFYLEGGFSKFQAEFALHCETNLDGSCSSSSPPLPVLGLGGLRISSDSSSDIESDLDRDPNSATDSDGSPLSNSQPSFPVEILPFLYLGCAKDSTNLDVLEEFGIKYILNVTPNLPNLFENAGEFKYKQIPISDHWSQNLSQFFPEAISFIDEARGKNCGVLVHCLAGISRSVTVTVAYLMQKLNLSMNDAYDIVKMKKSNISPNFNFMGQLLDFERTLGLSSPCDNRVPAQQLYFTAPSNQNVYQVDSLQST

[23] = biological target: Eukaryotic translation initiation factor 4E (Mus musculus, UniProt P63073); experiment: blockers of eIF4G binding by eIF4E – biochemical, TR-FRET, dose response (AID 855); assay type: functional;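 note: potency for disrupting eIF4E binding to eIF4GI seen as loss of FRET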
[24] = biological target: Induced myeloid leukemia cell differentiation protein Mcl-1 (Homo sapiens, UniProt Q07820); assay type: functional
[25] = biological target: T8, Polyadenylate-binding protein 1; experiment: MLLE binding blockers, Cy5 peptide tracer – biochemical, fluorescence polarization, Cy5-PAM2 peptide, secondary, miRNA deadenylation inhibitor project, dose response (AID 602260); assay type: functional; settings: read-out: IC50_Mean

T5 sequence (Q00975 whole entry): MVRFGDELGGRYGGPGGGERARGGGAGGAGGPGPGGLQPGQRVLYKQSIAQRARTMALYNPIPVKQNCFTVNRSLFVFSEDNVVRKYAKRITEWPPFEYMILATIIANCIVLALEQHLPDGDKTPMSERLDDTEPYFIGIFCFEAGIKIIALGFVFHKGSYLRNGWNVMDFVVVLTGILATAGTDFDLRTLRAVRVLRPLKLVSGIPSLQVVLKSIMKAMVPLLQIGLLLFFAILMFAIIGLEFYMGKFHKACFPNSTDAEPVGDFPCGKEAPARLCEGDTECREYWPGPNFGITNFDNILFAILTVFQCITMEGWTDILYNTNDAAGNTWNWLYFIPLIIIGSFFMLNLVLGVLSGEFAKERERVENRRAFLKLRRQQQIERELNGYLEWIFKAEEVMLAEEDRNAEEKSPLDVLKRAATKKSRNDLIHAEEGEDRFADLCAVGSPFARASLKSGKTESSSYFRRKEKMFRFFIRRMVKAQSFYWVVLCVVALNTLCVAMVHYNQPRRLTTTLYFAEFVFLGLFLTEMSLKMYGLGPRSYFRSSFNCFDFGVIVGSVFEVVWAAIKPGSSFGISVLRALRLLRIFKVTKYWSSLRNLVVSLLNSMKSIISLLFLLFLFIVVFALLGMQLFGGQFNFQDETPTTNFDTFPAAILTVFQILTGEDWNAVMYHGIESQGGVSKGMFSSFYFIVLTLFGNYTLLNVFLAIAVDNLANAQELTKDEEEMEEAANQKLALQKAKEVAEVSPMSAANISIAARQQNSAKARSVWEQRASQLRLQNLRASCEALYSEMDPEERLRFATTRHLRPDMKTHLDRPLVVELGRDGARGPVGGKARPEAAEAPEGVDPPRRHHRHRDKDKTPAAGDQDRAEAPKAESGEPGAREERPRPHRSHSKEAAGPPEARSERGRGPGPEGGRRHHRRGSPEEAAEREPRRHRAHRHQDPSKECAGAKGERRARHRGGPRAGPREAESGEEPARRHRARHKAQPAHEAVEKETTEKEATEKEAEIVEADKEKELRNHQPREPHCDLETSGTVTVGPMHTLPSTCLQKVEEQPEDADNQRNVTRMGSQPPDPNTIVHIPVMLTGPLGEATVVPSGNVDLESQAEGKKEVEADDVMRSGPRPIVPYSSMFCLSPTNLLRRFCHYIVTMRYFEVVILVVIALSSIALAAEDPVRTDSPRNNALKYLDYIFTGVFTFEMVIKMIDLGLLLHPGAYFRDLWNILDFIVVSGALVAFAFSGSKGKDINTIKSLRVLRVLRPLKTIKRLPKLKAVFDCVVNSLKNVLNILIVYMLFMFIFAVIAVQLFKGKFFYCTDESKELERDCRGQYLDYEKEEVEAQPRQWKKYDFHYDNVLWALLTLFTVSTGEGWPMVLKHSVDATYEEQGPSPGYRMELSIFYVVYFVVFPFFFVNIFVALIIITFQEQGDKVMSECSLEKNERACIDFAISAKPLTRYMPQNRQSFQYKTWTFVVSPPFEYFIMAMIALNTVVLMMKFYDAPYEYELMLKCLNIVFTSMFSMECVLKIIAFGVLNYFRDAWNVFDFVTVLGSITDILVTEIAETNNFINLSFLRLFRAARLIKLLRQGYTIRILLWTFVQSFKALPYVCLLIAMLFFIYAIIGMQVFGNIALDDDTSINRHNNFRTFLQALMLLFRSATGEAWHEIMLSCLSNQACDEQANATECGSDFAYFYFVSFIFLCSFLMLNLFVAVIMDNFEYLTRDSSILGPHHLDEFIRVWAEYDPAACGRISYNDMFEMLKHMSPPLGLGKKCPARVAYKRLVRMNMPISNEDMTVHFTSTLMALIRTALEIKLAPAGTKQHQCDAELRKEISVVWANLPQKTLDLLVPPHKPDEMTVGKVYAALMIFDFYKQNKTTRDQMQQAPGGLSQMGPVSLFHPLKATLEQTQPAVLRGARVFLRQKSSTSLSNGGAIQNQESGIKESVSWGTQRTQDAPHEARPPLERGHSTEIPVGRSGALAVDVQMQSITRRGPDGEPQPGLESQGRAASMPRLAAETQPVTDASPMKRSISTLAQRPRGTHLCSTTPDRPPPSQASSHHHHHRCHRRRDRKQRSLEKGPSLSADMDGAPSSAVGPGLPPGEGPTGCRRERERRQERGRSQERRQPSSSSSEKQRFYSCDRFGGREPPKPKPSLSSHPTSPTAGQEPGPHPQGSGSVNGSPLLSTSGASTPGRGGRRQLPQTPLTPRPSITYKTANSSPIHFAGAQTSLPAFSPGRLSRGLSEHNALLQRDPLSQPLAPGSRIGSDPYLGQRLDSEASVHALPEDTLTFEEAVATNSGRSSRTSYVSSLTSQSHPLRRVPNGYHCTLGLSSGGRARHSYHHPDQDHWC
T5 sequence (Q02410 whole entry): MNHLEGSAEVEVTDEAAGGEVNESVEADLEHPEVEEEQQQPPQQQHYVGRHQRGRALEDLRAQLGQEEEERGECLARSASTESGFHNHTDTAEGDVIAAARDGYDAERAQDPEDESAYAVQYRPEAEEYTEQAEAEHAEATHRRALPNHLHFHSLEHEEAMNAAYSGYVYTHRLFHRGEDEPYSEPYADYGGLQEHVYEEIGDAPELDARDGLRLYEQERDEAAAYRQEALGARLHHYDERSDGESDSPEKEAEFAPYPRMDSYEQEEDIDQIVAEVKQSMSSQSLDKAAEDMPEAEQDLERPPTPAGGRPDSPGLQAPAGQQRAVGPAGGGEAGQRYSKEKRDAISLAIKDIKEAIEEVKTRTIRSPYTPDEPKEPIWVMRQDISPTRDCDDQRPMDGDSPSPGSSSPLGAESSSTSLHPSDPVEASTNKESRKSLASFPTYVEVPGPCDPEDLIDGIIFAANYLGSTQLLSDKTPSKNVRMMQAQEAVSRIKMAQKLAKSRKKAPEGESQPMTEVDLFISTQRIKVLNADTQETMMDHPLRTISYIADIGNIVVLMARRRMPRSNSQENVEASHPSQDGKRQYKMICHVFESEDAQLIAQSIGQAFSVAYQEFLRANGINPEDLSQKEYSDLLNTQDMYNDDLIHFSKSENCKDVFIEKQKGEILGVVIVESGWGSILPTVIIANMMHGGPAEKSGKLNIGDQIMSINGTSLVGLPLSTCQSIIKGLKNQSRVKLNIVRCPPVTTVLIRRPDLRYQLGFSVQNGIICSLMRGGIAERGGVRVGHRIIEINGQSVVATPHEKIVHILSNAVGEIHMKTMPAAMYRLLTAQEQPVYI
Sequence of Hexokinase (Q38C41 whole entry): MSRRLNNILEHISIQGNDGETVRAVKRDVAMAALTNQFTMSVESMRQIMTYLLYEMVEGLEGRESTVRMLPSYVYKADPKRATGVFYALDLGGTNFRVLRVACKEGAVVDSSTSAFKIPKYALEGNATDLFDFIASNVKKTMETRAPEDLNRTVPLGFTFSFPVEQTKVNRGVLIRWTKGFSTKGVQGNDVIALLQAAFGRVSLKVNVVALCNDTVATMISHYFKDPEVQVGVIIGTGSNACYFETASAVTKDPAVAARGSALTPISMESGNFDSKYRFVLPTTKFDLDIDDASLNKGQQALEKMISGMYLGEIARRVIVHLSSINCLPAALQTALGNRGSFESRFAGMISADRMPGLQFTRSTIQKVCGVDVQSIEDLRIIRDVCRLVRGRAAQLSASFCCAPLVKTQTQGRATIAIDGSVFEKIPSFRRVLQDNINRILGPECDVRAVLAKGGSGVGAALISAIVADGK
T6 sequence (P41145 whole entry): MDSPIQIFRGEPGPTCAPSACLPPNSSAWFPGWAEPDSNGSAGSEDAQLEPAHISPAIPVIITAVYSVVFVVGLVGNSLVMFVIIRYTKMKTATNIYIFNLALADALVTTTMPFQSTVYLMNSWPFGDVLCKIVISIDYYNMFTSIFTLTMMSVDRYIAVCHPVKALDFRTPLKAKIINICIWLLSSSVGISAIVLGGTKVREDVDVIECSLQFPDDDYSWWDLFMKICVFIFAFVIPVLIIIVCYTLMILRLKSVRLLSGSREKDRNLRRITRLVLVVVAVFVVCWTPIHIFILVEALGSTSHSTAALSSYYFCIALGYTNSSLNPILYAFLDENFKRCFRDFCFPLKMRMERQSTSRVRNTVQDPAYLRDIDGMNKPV
T8 sequence (P11940 whole entry, the tested form may be a part): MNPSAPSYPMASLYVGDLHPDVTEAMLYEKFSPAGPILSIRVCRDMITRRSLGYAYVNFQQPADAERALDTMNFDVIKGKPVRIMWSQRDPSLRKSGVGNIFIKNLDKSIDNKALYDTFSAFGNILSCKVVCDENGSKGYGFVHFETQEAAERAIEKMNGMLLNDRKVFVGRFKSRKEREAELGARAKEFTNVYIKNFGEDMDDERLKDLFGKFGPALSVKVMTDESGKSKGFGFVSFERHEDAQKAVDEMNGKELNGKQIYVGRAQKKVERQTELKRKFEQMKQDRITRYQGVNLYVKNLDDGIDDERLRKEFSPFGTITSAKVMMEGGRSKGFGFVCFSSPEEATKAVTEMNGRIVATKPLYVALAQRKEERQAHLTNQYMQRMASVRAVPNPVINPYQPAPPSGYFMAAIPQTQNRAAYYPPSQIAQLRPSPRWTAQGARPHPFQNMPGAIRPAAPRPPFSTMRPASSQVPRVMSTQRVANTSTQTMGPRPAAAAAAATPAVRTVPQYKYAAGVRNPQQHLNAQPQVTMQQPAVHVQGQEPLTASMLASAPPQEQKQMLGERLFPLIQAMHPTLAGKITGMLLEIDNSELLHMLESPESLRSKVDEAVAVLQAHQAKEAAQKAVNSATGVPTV
T7 sequence (P51452 whole entry): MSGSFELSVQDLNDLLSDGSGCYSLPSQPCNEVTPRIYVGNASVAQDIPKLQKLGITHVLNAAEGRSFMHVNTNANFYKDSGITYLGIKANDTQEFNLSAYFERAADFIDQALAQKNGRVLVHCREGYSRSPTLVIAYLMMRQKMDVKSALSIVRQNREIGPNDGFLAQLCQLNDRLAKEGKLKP
Sequence of Eukaryotic translation initiation factor 4E (P63073 whole entry): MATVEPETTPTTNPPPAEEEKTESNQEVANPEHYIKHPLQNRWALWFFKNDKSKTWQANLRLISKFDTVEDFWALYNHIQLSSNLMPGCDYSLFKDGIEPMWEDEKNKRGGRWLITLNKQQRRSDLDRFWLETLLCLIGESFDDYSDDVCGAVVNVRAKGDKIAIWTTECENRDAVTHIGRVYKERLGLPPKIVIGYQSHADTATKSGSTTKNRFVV

O=C(Nc1nnc(-c2ccccc2Cl)o1)c1ccc(S(=O)(=O)N2CCCCCC2)cc1
IC50 (cells [1]): 14.2 µM (active) | Ki (fMet-Leu-Phe receptor): > 66.7 µM (inactive) | EC50 [2]: 0.266 µM (active) | CC50 [3]: 7.66 µM (active) | CC50 [4]: 4.8 µM (active) | CC50 [5]: 3.49 µM (active) | EC50 (Streptococcus): 0.793 µM (active)

CC(C)(C)C1CCc2sc(C(=O)NNC(=O)CCl)cc2C1 (centres undefined)
EC50 [6]: 1.75 µM (active) | CC50 [7]: 3.58 µM (active) | EC50 [8]: > 60 µM (inconclusive) | AC50 [9]: 4.29 µM (active) | EC50 (Protein RecA): 1.47 µM (active) | IC50 [10]: 3.86 µM (active)

O=C(Nc1ccncc1NC(=O)c1cccc([N+](=O)[O-])c1)c1cccc([N+](=O)[O-])c1
IC50 [11]: > 50 µM (inactive) | IC50 [12]: 18.9 µM (active)

CC(C)(C)c1ccc(C(=O)Nc2cc(Cl)c(Br)cc2C(=O)O)cc1
IC50 (Hexokinase): 0.976 µM (active)

Cc1cccc2sc(N(CCN(C)C)C(=O)c3ccc4ccccc4c3)nc12
AC50 (CAAX prenyl protease 2): > 100 µM (inactive)

COc1ccc(C(=O)Nc2ccccc2C(=O)N/N=C/c2ccccn2)cc1OC
EC50 (cells [13]): 8.88 µM (active) | EC50 (cells [14]): 16.6 µM (active) | IC50 (cells [1]): 36.9 µM (active) | EC50 [15]: 1.3 µM (active) | AC50 (INS1): 2.45 µM (active) | CC50 [3]: 14.3 µM (active) | IC50 [16]: 7.91 µM (active) | EC50 [17]: 0.298 µM (active) | EC50 (Beta-galactosidase): > 31.5 µM (inactive) | IC50 [18]: > 32 µM | CC50 [4]: > 20 µM (active) | CC50 [5]: 5.29 µM (active)

OB1OCc2cc(C(F)(F)F)ccc21
IC50 (Hexokinase): > 25 µM (inactive)

Cc1c(/N=N/c2c(-c3ccc([N+](=O)[O-])cc3)[nH]n(C(N)=S)c2=O)cccc1[N+](=O)[O-]
IC50 [19]: 3.37 µM (active) | IC50 [20]: 1.71 µM (active) | IC50 [21]: > 66 µM (inactive) | IC50 [22]: 7.01 µM (active) | IC50 [23]: 50 µM (inactive) | IC50 [11]: > 50 µM (inactive) | IC50 [24]: 6.05 µM (active) | IC50 [12]: 16.3 µM (active) | IC50 [25]: > 66 µM (inactive)
